Drawing on patent US10940139B2, “Compounds that interact with the Ras superfamily for the treatment of cancers, inflammatory diseases, rasopathies, and fibrotic disease” (Shy Therapeutics LLC, priority 2017, dated 2021), this text covers inhibition for 37 compounds.

For experiment [1], the target named is KRas G12D mutant protein (Homo sapiens (Human), UniProt P01116, G12D). Nature of the experiment: Ras GTP binding domain inhibition assay (labeled GTP). The following applies: at 20 μM; read-out: KRas G12D % Inh.
In experiment [2] the target is KRas G12D/Q61H double mutant (Homo sapiens (Human), UniProt P01116, G12D/Q61H). The description is as above. The following applies: at 20 μM; read-out: KRas G12D Q61H % Inh. A digest of the protocol:
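Inhibition of labeled GTP binding is measured on immobilized His-KRas protein in Tris buffer pH 7.5 with 1 mM MgCl2 and 1 mM DTT.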

Experiment [3] deals with Rac-1 (Homo sapiens (Human), UniProt P63000). Nature of the experiment: Rac inhibition assay (labeled GTP). It is filed as binding. Conditions: read-out: Rac-1 % Inh.
The target in experiment [4] is Rho-A (Homo sapiens (Human), UniProt P61586). Description: Rho inhibition assay (labeled GTP). The experiment is classed as binding. Conditions: read-out: Rho-A % Inh.
Sequence of Rho-A (P61586 whole entry): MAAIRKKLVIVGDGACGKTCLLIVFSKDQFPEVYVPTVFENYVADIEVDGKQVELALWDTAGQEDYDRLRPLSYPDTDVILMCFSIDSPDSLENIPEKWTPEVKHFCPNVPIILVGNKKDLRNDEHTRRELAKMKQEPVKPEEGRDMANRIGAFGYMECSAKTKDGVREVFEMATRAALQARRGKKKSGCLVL

Sequence of KRas G12D/Q61H double mutant (P01116-2 other isoform, or with tags, fused parts or gaps G12D/Q61H): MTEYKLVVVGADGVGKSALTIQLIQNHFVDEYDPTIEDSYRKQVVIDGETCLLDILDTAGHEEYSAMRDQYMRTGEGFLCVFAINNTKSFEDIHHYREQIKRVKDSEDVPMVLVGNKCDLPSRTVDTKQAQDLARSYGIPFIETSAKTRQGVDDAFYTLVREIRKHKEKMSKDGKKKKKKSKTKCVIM
Sequence of KRas G12D mutant protein (P01116-2 other isoform, or with tags, fused parts or gaps G12D): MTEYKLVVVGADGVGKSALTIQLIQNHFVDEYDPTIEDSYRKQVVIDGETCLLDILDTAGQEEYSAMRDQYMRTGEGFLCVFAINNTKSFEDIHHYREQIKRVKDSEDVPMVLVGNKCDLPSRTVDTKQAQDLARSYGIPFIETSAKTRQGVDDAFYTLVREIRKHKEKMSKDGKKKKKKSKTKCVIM

`COc1cnc(-c2ccccn2)nc1O` [drawing 3787]: the inhibition at 20 µM in experiment [1] is 51 to 75%; in experiment [2], 51 to 75%; in experiment [3], 76 to 100%; in experiment [4], 76 to 100%.

Take `Oc1nc(-c2ccccn2)nc2c(-c3ccccc3Cl)csc12` [drawing 3626]: the inhibition at 20 µM in experiment [1] was in the range of 25 to 50%; in experiment [2], 51 to 75%; in experiment [3], 76 to 100%; in experiment [4], 76 to 100%.

`Oc1nc(-c2ccccn2)nc2c(-c3cc(F)ccc3OC(F)F)csc12` [drawing 3732]: the inhibition at 20 µM in experiment [1] fell in the range of 51 to 75%; in experiment [2], 25 to 50%; in experiment [3], 51 to 75%; in experiment [4], 25 to 50%.

`COc1cnc(-c2nccn2C)nc1O` [drawing 3831]: the inhibition at 20 µM in experiment [1], in experiment [2], in experiment [3] and in experiment [4] was 76 to 100% each time.

Take `Oc1nc(-c2ccccn2)nc2c(-c3ccc4c(c3)OCO4)csc12` [drawing 3751]: the inhibition at 20 µM in experiment [1] was 51 to 75%; in experiment [2], 51 to 75%; in experiment [3] it was 76 to 100%; in experiment [4], 51 to 75%.

Regarding `Oc1nc(-c2ccccn2)nc2scc(Br)c12` [drawing 3623], the inhibition at 20 µM in experiment [1] was 51 to 75%; in experiment [2], 51 to 75%; in experiment [3] it was 76 to 100%; in experiment [4], 76 to 100%.

Take `N#Cc1ccc(COCC(=O)Nc2nc(-c3ccccn3)nc3sccc23)cc1` [drawing 3688]: the inhibition at 20 µM in experiment [1] was 76 to 100%; in experiment [2], 25 to 50%; in experiment [3] it was 76 to 100%; in experiment [4], 76 to 100%.

As to `Nc1nc(-c2ccccn2)nc2c(-c3ccccc3)csc12` [drawing 3731], the inhibition at 20 µM lay in the range of 25 to 50% in experiment [1], 25 to 50% in experiment [2], 51 to 75% in experiment [3] and 51 to 75% in experiment [4].

`CC(C)Cc1csc2c(O)nc(-c3ccccn3)nc12` [drawing 3813]: the inhibition at 20 µM in experiment [1] lay within 51 to 75%; in experiment [2] it was 51 to 75%; in experiment [3], 76 to 100%; in experiment [4], 76 to 100%.

`Oc1nc(-c2ccccn2)nc2c(C3CCCC3)csc12` [drawing 3814]: the inhibition at 20 µM was 51 to 75% in experiment [1], 51 to 75% in experiment [2], 76 to 100% in experiment [3] and 76 to 100% in experiment [4].

For `Oc1nc(-c2ccccn2)nc2c(-c3cc(CN4CCCC4)ccc3F)csc12` [drawing 3821], the inhibition at 20 µM in experiment [1] was 76 to 100%; in experiment [2], 51 to 75%; in experiment [3], 76 to 100%; in experiment [4] it was 76 to 100%.

Take `COc1cccc(-c2csc3c(O)nc(-c4ccccn4)nc23)c1` [drawing 3744]: the inhibition at 20 µM in experiment [1] is 76 to 100%; in experiment [2], 25 to 50%; in experiment [3], 51 to 75%; in experiment [4], 51 to 75%.

Take `Cc1c(C(=O)O)sc2c(O)nc(-c3ccccn3)nc12` [drawing 3794]: the inhibition at 20 µM in experiment [1] was 25 to 50%; in experiment [2] it was 51 to 75%; in experiment [3] it was 76 to 100%; in experiment [4], 51 to 75%.

In the case of `Oc1nc(-c2ccccn2)nc2c1c(-c1ccccc1)nn2-c1ccccn1` [drawing 3857], the inhibition at 20 µM in experiment [1], in experiment [2], in experiment [3] and in experiment [4] was 51 to 75% throughout.

Turning to `CC(C)Oc1cnc(-c2ccccn2)nc1O` [drawing 3800], the inhibition at 20 µM in experiment [1] is 51 to 75%; in experiment [2], 51 to 75%; in experiment [3], 76 to 100%; in experiment [4], 76 to 100%.

On to `Oc1nc(-c2ccccn2)nc2c(-c3ccc(OC(F)F)cc3F)csc12` [drawing 3748], for which the inhibition at 20 µM in experiment [1] is 51 to 75%; in experiment [2], 51 to 75%; in experiment [3] it was 76 to 100%; in experiment [4] it was 76 to 100%.

In the case of `COc1ccc(COC[C@H]2OC(c3csc4c(=O)[nH]c(-c5ccccn5)nc34)[C@H](O)[C@@H]2O)cc1` (stereo partly shown), the inhibition at 20 µM fell in the range of 25 to 50% in experiment [1], 25 to 50% in experiment [2], 51 to 75% in experiment [3] and 76 to 100% in experiment [4].

As for `Cc1sc2c(O)nc(-c3ccccn3)nc2c1-c1ccccc1Cl` [drawing 3833], the inhibition at 20 µM is 51 to 75% in experiment [1], 51 to 75% in experiment [2], 76 to 100% in experiment [3] and 76 to 100% in experiment [4].

For the compound `CNC(=O)c1ccc(-c2csc3c(O)nc(-c4ccccn4)nc23)cc1C` [drawing 3757], the inhibition at 20 µM lay in the range of 25 to 50% in experiment [1], 25 to 50% in experiment [2], 51 to 75% in experiment [3] and 51 to 75% in experiment [4].

As to `Oc1cccc(-c2csc3c(O)nc(-c4ccccn4)nc23)n1` [drawing 3817], the inhibition at 20 µM in experiment [1] is 51 to 75%; in experiment [2], 51 to 75%; in experiment [3], 76 to 100%; in experiment [4], 76 to 100%.

Turning to `Oc1nc(-c2ccccn2)nc2c(-c3cc(F)cc(F)c3)csc12` [drawing 3772], the inhibition at 20 µM in experiment [1], in experiment [2], in experiment [3] and in experiment [4] was 51 to 75% throughout.

For `Oc1nc(-c2ccccn2)nc(Oc2cccc(C(F)(F)F)c2)c1O` [drawing 3876], the inhibition at 20 µM in experiment [1], in experiment [2], in experiment [3] and in experiment [4] was 51 to 75% in each case.

As to `Cc1sc2c(O)nc(-c3ccccn3)nc2c1-c1cccnc1` [drawing 3786], the inhibition at 20 µM in experiment [1] was in the range of 51 to 75%; in experiment [2], 25 to 50%; in experiment [3], 51 to 75%; in experiment [4] it was 25 to 50%.

Take `COc1ccnc(-c2nc(O)c3ccsc3n2)c1` [drawing 3627]: the inhibition at 20 µM in experiment [1] was in the range of 51 to 75%; in experiment [2], 51 to 75%; in experiment [3], 76 to 100%; in experiment [4], 51 to 75%.

Take `O=C(COCc1cccnc1)Nc1nc(-c2ccccn2)nc2sccc12` [drawing 3701]: the inhibition at 20 µM was in the range of 51 to 75% in experiment [1], 51 to 75% in experiment [2], 76 to 100% in experiment [3] and 76 to 100% in experiment [4].

For `COc1cnc(-c2cnc[nH]2)nc1O` [drawing 3834], the inhibition at 20 µM was 51 to 75% in experiment [1], 51 to 75% in experiment [2], 76 to 100% in experiment [3] and 76 to 100% in experiment [4].

On to `COCC(C)Nc1nc(-c2ccccn2)nc2sc(-c3ccncc3)c(-c3ccccc3)c12` (stereo not shown) [drawing 3859], for which the inhibition at 20 µM lay within 25 to 50% in experiment [1], 51 to 75% in experiment [2], 51 to 75% in experiment [3] and 51 to 75% in experiment [4].

For the compound `Oc1nc(-c2ccccn2)nc2cc(-c3ccncc3)sc12` [drawing 3879], the inhibition at 20 µM in experiment [1] lay in the range of 51 to 75%; in experiment [2], 51 to 75%; in experiment [3], 25 to 50%; in experiment [4], 51 to 75%.

As for `O=C(c1csc2c(O)nc(-c3ccccn3)nc12)N1CCOC(c2ccccc2Cl)C1` (stereo not shown) [drawing 3658], the inhibition at 20 µM is 25 to 50% in experiment [1], 51 to 75% in experiment [2], 51 to 75% in experiment [3] and 76 to 100% in experiment [4].

For `O=C(c1csc2c(O)nc(-c3ccccn3)nc12)N1CCC(c2ccncc2)C1` (stereo not shown) [drawing 3711], the inhibition at 20 µM in experiment [1] was 51 to 75%; in experiment [2] it was 51 to 75%; in experiment [3] it was 51 to 75%; in experiment [4], 76 to 100%.

Take `Cc1sc2c(O)nc(-c3ccccn3)nc2c1-c1ccccc1` [drawing 3777]: the inhibition at 20 µM in experiment [1], in experiment [2], in experiment [3] and in experiment [4] was 51 to 75% each time.

Turning to `Cc1cnc(-c2ccccn2)nc1NC(=O)C1CCCc2cc(C#N)ccc21` (stereo not shown) [drawing 3699], the inhibition at 20 µM in experiment [1] lay within 25 to 50%; in experiment [2], 51 to 75%; in experiment [3], 76 to 100%; in experiment [4], 76 to 100%.

For `Cc1cnccc1-c1csc2c(O)nc(-c3ccccn3)nc12` [drawing 3760], the inhibition at 20 µM in experiment [1] was 51 to 75%; in experiment [2], 51 to 75%; in experiment [3] it was 76 to 100%; in experiment [4] it was 76 to 100%.

For `Oc1nc(-c2ccccn2)nc2c(-c3cccc4c3OCO4)csc12` [drawing 3721], the inhibition at 20 µM in experiment [1] was 25 to 50%; in experiment [2], 51 to 75%; in experiment [3], 51 to 75%; in experiment [4] it was 51 to 75%.

Turning to `Cc1cnc(-c2ccccn2)nc1NC(=O)Cc1ccc2cnccc2c1` [drawing 3728], the inhibition at 20 µM in experiment [1] is 51 to 75%; in experiment [2] it was 51 to 75%; in experiment [3], 76 to 100%; in experiment [4] it was 76 to 100%.

As for `CC1CN(c2ccccc2)CCN1C(=O)c1csc2c(O)nc(-c3ccccn3)nc12` (stereo not shown) [drawing 3650], the inhibition at 20 µM fell in the range of 76 to 100% in experiment [1], 51 to 75% in experiment [2], 76 to 100% in experiment [3] and 76 to 100% in experiment [4].

In the case of `Oc1nc(-c2ccccn2)nc2c(C3CCC3)csc12` [drawing 3797], the inhibition at 20 µM in experiment [1] is 51 to 75%; in experiment [2] it was 51 to 75%; in experiment [3] it was 76 to 100%; in experiment [4], 76 to 100%.
